Assay results as given in ChEMBL document CHEMBL1201862, “PubChem BioAssay data set” (2004).
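The compound was tested at five concentrations on cells cultured in 96-well plates, with a 48-hour exposure period. GI50 is the concentration that inhibits growth by half.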 Calls of active or inactive are those of the source. No stated cut-off is given here; in the data, active = GI50 up to about 1.1 µM and inactive = higher.

Key:
Test in all cases: DTP human tumour cell line panel, 48 h
[1] = system: KM12
[2] = system: SF-268
[3] = system: NCI-H522
[4] = system: UACC-257
[5] = system: NCI-H460
[6] = system: HCT-116
[7] = system: SK-MEL-2
[8] = system: MOLT-4
[9] = system: EKVX
[10] = system: NCI-H226
[11] = system: IGROV-1
[12] = system: LOX IMVI
[13] = system: CCRF-CEM
[14] = system: NCI-H23
[15] = system: HOP-62
[16] = system: SF-539
[17] = system: HOP-92
[18] = system: U-251
[19] = system: RPMI-8226

Measured: GI50

CCCCN/N=N/c1cn(C2OC(CO)C(O)C2O)c(=O)[nH]c1=O (configuration not stated)
inactive: [1] > 100 µM | [2] > 100 µM | [3] > 100 µM | [4] > 100 µM | [5] > 100 µM | [6] > 100 µM | [7] > 100 µM | [8] > 100 µM | [9] > 100 µM | [10] > 100 µM | [11] > 100 µM | [12] > 100 µM | [13] > 100 µM | [14] > 100 µM | [15] > 100 µM | [16] > 100 µM

Nc1nc2c(nnn2C2C=C(CO)C(O)C2O)c(=O)[nH]1 (configuration not stated)
inactive: [17] > 100 µM | [1] > 100 µM | [2] > 100 µM | [3] > 100 µM | [4] > 100 µM | [5] > 100 µM | [6] > 100 µM | [7] 24.2 µM | [8] 42.5 µM | [9] > 100 µM | [10] > 100 µM | [18] > 100 µM | [11] > 100 µM | [12] 27.9 µM | [13] > 100 µM | [14] > 100 µM | [15] > 100 µM | [16] > 100 µM

CO/C=C/c1cc2c(cc1C(OC)OC)OCO2
inactive: [17] 40.2 µM | [1] 52.6 µM | [2] 52.1 µM | [3] > 100 µM | [4] > 100 µM | [5] 36 µM | [6] 27.5 µM | [7] 82.2 µM | [8] 33.7 µM | [9] 69.7 µM | [10] 57 µM | [18] 53.3 µM | [11] 60.1 µM | [13] 39.7 µM | [14] 54 µM | [15] 26.7 µM | [16] 34.7 µM

O=C(C=P(c1ccccc1)(c1ccccc1)c1ccccc1)c1ccc(-c2ccc(F)cc2F)cc1
inactive: [17] 2.19 µM | [1] 3.42 µM | [2] 4.03 µM | [4] 2.72 µM | [5] 1.86 µM | [6] 2.87 µM | [8] 1.83 µM | [9] 3.17 µM | [10] 2.43 µM | [18] 3.41 µM | [12] 2 µM | [13] 2.61 µM | [14] 3.22 µM | [15] 3.79 µM | [16] 2.88 µM | [19] 1.87 µM

Nc1ccc(S2(c3ccc(N)cc3)C=C(c3ccccc3)C(c3ccccc3)=C2)cc1
inactive: [17] 18.1 µM | [1] > 54.7 µM | [2] > 44.5 µM | [4] > 54.5 µM | [5] > 22.4 µM | [6] > 36 µM | [7] > 26.6 µM | [8] > 73.8 µM | [9] > 100 µM | [10] > 21.8 µM | [18] > 25 µM | [11] > 100 µM | [12] > 33.5 µM | [13] > 100 µM | [14] > 47.2 µM | [15] 70.8 µM | [16] > 25.5 µM | [19] > 64 µM

CN1CC(=O)N(C)c2ncn(Cc3ccccc3)c2C1=O
inactive: [1] > 100 µM | [2] 12.2 µM | [5] > 100 µM | [8] > 100 µM | [9] > 100 µM | [18] > 100 µM | [11] > 100 µM | [12] > 100 µM | [13] > 100 µM | [14] > 100 µM | [16] > 100 µM | [19] > 100 µM
